Drawing on patent publication US10851097B2, “4,5,6,7-tetrahydro-1H-imidazo[4,5-c]pyridine and 1,4,5,6,7,8-hexahydroimidazo[4,5-d]azepine derivatives as janus kinase inhibitors” (Topivert Pharma Limited, priority 2015, dated 2020), this text covers Kd and IC50 for one compound.

The target of one test is T1, JAK2 (Homo sapiens, UniProt O60674).
T1 construct: purchased DiscoveRx (LeadHunter Discover Services, KINOMEscan)
Put plainly: KINOMEscan enzyme binding assay (DiscoveRx), JAK2. Conditions: read-out: Dissociation Constant JAK2. As for the experimental part: These assays may be conducted by DiscoveRx (formerly Ambit; San Diego, Calif.). The percentage inhibition produced by incubation with a test compound may be calculated relative to the non-inhibited control.

The test system of test [1] is CD3/IL2 stimulated PBMC cells. Put plainly: IFNγ release from CD3/IL2 stimulated PBMC cells (assay (a)). The class given is cell-based. To be noted: Homo sapiens, CD3/IL2 stimulation, 48 h, ELISA. As for the experimental part:
(a) IFNγ Release from CD3/IL2 Stimulated PBMC Cells
PBMCs from healthy subjects are separated from whole blood using a density gradient (Lymphoprep, Axis-Shield Healthcare). Cells are added to a 96 well plate, and compound at the desired concentration added 2 hours prior to stimulation with a mixture of monoclonal antibody to CD3 (1 μg/ml, eBioscience) and human recombinant IL2 (10 ng/ml, Peprotech). After 48 hours incubation under normal tissue culture conditions, supernatants are collected and IFNγ release determined by Sandwich ELISA (Duo-set, R&D System). The IC50 is determined from the dose response curve.
For orientation: ELISA stands for enzyme-linked immunosorbent assay.

T1 sequence (O60674 840-1132 limits assumed): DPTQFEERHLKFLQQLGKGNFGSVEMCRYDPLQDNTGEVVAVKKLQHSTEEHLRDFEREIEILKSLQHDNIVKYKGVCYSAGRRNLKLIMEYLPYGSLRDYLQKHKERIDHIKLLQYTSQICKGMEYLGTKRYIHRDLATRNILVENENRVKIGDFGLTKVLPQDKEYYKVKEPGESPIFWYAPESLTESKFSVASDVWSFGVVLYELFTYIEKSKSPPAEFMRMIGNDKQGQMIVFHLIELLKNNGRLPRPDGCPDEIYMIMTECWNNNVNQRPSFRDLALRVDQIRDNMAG

With `CCc1cc(O)c(F)cc1-c1ccc2c(-c3nc4c([nH]3)CCN(C(=O)c3cnc(N(C)CCN5CCCC5=O)cn3)C4)n[nH]c2c1` [Example 2(k), 1-(2-((5-(2-(6-(2-ethyl-5-fluoro-4-hydroxyphenyl)-1H-indazol-3-yl)-4,5,6,7-tetrahydro-1H-imidazo[4,5-c]pyridine-5-carbonyl)pyrazin-2-yl)(methyl)amino)ethyl)pyrrolidin-2-one], the Kd on JAK2 was determined as 0.047 nM. In addition, the IC50 – broadly, the concentration that gives 50% inhibition – in test [1] came out at 9.9 nM.
